ChEMBL document CHEMBL2202983, “Structure-anti-leukemic activity relationship study of ortho-dihydroxycoumarins in U-937 cells: key role of the δ-lactone ring in determining differentiation-inducing potency and selective pro-apoptotic action” (Bioorg Med Chem, 2012)
The source made the active and inactive calls. The calls are words filed in the database; no cut-off is given here.

How the values were obtained:
U-937 [1] = test: Induction of apoptosis in human U937 cells assessed as increase of caspase-8 cleavage at 250 uM after 12 hrs by Western blot analysis; type: functional, cell-based
Jurkat [2] = test: Cytotoxicity against human Jurkat at 250 uM after 48 hrs by trypan blue assay; type: functional, cell-based
U-937 [3] = test: Inhibition of clonogenic activity in human U937 cells assessed as reduction of colony formation in soft agar at 100 to 250 uM after 24 hrs using crystal violet staining; type: functional, cell-based
U-937 [4] = test: Induction of apoptosis in human U937 cells assessed as reduction of normal cells at 250 uM after 24 hrs by Annexin V-FITC double staining; type: functional, cell-based
U-937 [5] = test: Induction of cell differentiation in human U937 cells assessed as increase of CD11b and CD14 expression at 50 uM after 72 hrs by FACS flow cytometer analysis; type: functional, cell-based
U-937 [6] = test: Cytotoxicity against human U937 cells after 48 hrs by trypan blue assay; type: functional; details: U-937, 48 h
U-937 [7] = test: Induction of apoptosis in human U937 cells assessed as activation of caspase-3 at 250 uM after 24 hrs by colorimetric assay in presence of caspase-9 inhibitor Z-LEHD-FMK; type: functional, cell-based
U-937 [8] = test: Induction of apoptosis in human U937 cells assessed as increase of caspase-9 cleavage at 250 uM after 12 hrs by Western blot analysis; type: functional, cell-based
U-937 [9] = test: Pro-oxidant activity in human U937 cells assessed as DCF-DA oxidation at 10 to 250 uM by fluorescence assay; type: functional, cell-based; details: TDE = time-dependent effect
U-937 [10] = test: Induction of apoptosis in human U937 cells assessed as phosphatidylserine expression in plasma membrane at 250 uM after 24 hrs by Annexin V-FITC double staining; type: functional, cell-based
PBMC = test: Cytotoxicity against human PBMC at 250 uM after 48 hrs by trypan blue assay; type: cell-based
U-937 [11] = test: Induction of apoptosis in human U937 cells assessed as activation of caspase-3 at 250 uM after 24 hrs by colorimetric assay in presence of caspase-8 inhibitor Z-LETD-FMK; type: functional, cell-based
U-937 [12] = test: Induction of apoptosis in human U937 cells assessed as PARP cleavage at 250 uM after 24 hrs by Western blot analysis; type: functional, cell-based
Jurkat [13] = test: Induction of apoptosis in human Jurkat cells assessed as activation of caspase-3-mediated PARP cleavage at 250 uM after 24 hrs by colorimetric assay; type: functional, cell-based
U-937 [14] = test: Antiproliferative activity against human U937 cells assessed as incorporation of [3H]-methyl-thymidine after 12 hrs by scintillation counting; type: functional, cell-based
U-937 [15] = test: Induction of cell differentiation in human U937 cells assessed as increase of rhC5a-induced response at 50 uM after 72 hrs by FACS flow cytometer analysis; type: functional, cell-based
[16] = Pro-oxidant activity in 0.1 M potassium phosphate buffer at pH 7.4 assessed as increase of oxidation potential by cyclic voltammetry analysis; type: physicochemical
U-937 [17] = test: Pro-oxidant activity in human U937 cells assessed as DCF-DA oxidation up to 6 hrs by fluorescence assay; type: functional, cell-based
U-937 [18] = test: Induction of apoptosis in human U937 cells assessed as active 11 kDa fragment of caspase-3 at 250 uM after 24 hrs by Western blot analysis; type: functional, cell-based
U-937 [19] = test: Cell cycle arrest in human U937 cells assessed as accumulation at sub-G0/G1 phase at 250 uM after 24 hrs using propidium iodide staining by FACS analysis; type: functional, cell-based
[20] = Induction of free radicals production in RPMI 1640 medium at pH 7.4 by electron spin resonance analysis; type: physicochemical
U-937 [21] = test: Induction of cell differentiation in human U937 cells assessed as increase of CD88 expression at 50 uM after 72 hrs by FACS flow cytometer analysis; type: functional, cell-based
U-937 [22] = test: Induction of apoptosis in human U937 cells assessed as increase of caspase-9 cleavage at 250 uM by Western blot analysis; type: functional, cell-based; details: TDE = time-dependent effect
[23] = Induction of free radicals production in carbonate buffer at pH 9 by electron spin resonance analysis; type: physicochemical
U-937 [24] = test: Induction of DNA damage in human U937 cells; type: functional, cell-based
U-937 [25] = test: Induction of apoptosis in human U937 cells assessed as activation of caspase-3 at 250 uM after 24 hrs by colorimetric assay; type: functional, cell-based
U-937 [26] = test: Induction of cell differentiation in human U937 cells assessed as increase of CD11b and CD14 expression at 500 uM after 72 hrs by FACS flow cytometer analysis; type: functional, cell-based
U-937 [27] = test: Induction of apoptosis in human U937 cells assessed as activation of caspase-3 at 500 uM after 24 hrs by colorimetric assay; type: functional, cell-based
U-937 [28] = test: Induction of apoptosis in human U937 cells assessed as activation of caspase-3 at 1000 uM after 48 hrs by colorimetric assay; type: functional, cell-based
U-937 [29] = test: Induction of apoptosis in human U937 cells assessed as reduction of normal cells at 1000 uM after 24 hrs by Annexin V-FITC double staining; type: functional, cell-based
U-937 [30] = test: Induction of apoptosis in human U937 cells assessed as phosphatidylserine expression in plasma membrane at 1000 uM after 24 hrs by Annexin V-FITC double staining; type: functional, cell-based
U-937 [31] = test: Induction of cell differentiation in human U937 cells assessed as increase of CD88 expression at 250 to 500 uM after 72 hrs by FACS flow cytometer analysis; type: functional, cell-based
Jurkat [32] = test: Induction of apoptosis in human Jurkat cells at 500 uM after 48 hrs by Annexin V-FITC double staining; type: functional, cell-based
Jurkat [33] = test: Induction of apoptosis in human Jurkat cells assessed as activation of caspase-3 at 500 uM after 24 hrs by colorimetric assay; type: functional, cell-based
U-937 [34] = test: Pro-oxidant activity in human U937 cells assessed as DCF-DA oxidation at 10 to 250 uM after 48 hrs by fluorescence assay; type: functional, cell-based
U-937 [35] = test: Induction of cell differentiation in human U937 cells assessed as increase of rhC5a-induced response at 250 to 500 uM after 72 hrs by FACS flow cytometer analysis; type: functional, cell-based
Jurkat [36] = test: Induction of apoptosis in human Jurkat cells assessed as activation of caspase-3-mediated PARP cleavage at 500 uM after 24 hrs by colorimetric assay; type: functional, cell-based
U-937 [37] = test: Induction of cell differentiation in human U937 cells assessed as increase of CD11b and CD14 expression at 250 to 500 uM after 72 hrs by FACS flow cytometer analysis; type: functional, cell-based

SMILES	colony formation inhibition (active/not active) (U-937 [3])	Activity (U-937 [4])	CC50 (U-937 [6])	Activity (U-937 [12])	IC50 (U-937 [14])	Activity (U-937 [18])	Activity (U-937 [19])	Activity [20]	Activity [23]	Activity (U-937 [25])	Activity (U-937 [26])	Activity (U-937 [27])	also measured
Cc1cc(=O)oc2c(O)c(O)ccc12 [4-METHYLDAPHNETIN]	Active	Active	120 µM	Active	83.2 µM	Active	Active	Active	Active	Active	–	–	Activity (U-937 [1]): inactive; Activity (Jurkat [2]): Active; Activity (U-937 [5]): Active; Activity (U-937 [7]): inactive; Activity (U-937 [8]): Active; Activity (U-937 [9]): tde; Activity (U-937 [10]): Active; Activity (PBMC): Toxic; Activity (U-937 [11]): Active; Activity (Jurkat [13]): Active; Activity (U-937 [15]): Active; Activity [16]: Active; Activity (U-937 [17]): Dose-dependent effect; Activity (U-937 [21]): Active; Activity (U-937 [22]): tde; Activity (U-937 [24]): inactive
Cc1cc(=O)oc2cc(O)c(O)cc12 [4-METHYLESCULETIN]	Active	Active	76 µM	Active	97.4 µM	Active	Active	Active	Active	Active	–	–	–
Cc1cc(=O)oc2cc(O)cc(O)c12 [5,7-DIHYDROXY-4-METHYLCOUMARIN]	–	–	> 2000 µM	–	> 2000 µM	–	–	–	–	–	Active	inactive	–
O=C(O)/C=C/c1ccc(O)c(O)c1 [CAFFEIC ACID]	inactive	–	> 2000 µM	–	316 µM	–	–	Active	Active	–	–	–	Activity (U-937 [28]): inactive; Activity (U-937 [29]): inactive
O=C(O)/C=C/c1ccc(O)cc1 [COUMARIC ACID]	–	–	> 2000 µM	–	> 2000 µM	–	–	–	–	–	inactive	–	–
O=C(O)CCc1ccc(O)c(O)c1 [DIHYDROCAFFEIC ACID]	inactive	–	> 2000 µM	–	213 µM	–	–	Active	Active	–	–	–	Activity (Jurkat [2]): Active; Activity (U-937 [30]): Active; Activity (U-937 [31]): Active; Activity (Jurkat [32]): inactive; Activity (Jurkat [33]): Active; Activity (U-937 [28]): inactive; Activity (U-937 [29]): inactive; Activity (U-937 [34]): inactive; Activity (U-937 [35]): Active; Activity [16]: Active; Activity (Jurkat [36]): Active; Activity (U-937 [37]): Active; Activity (U-937 [24]): inactive
O=c1ccc2cc(O)c(O)cc2o1 [ESCULETIN]	Active	Active	108 µM	Active	143 µM	Active	Active	Active	Active	Active	–	–	–
COc1cc2ccc(=O)oc2c(O)c1O [FRAXETIN]	Active	Active	70.2 µM	Active	143 µM	Active	Active	Active	Active	Active	–	–	–
Cc1cc(=O)oc2cc(O)ccc12 [HYMECROMONE]	inactive	–	> 2000 µM	–	711 µM	–	–	–	–	–	Active	inactive	Activity (U-937 [34]): inactive
COc1cc2ccc(=O)oc2cc1OC [SCOPARONE]	–	–	1290 µM	–	590 µM	–	–	–	–	–	–	inactive	Activity [16]: Not Active
COc1cc2ccc(=O)oc2cc1O [SCOPOLETIN]	–	–	> 2000 µM	–	976 µM	–	–	–	–	–	inactive	inactive	–
